Assay results taken from patent publication US11464750B2, “Anticancer agent and use thereof” (priority 2017, dated 2022).

Tests used:
Assay type in all cases: cell-based, human
[1] = test system: JeKo-1 cells; test: MTT assay, JeKo-1 cells; conditions: 48 hours
Procedure: (§1) JeKo-1 cells of a cell line derived from a human mantle cell lymphoma were seeded in a 96-well plate at 1×10^4 cells/well/100 μL. In addition, Panc-1 cells of a cell line derived from a human pancreatic cancer were seeded in a 96-well plate at 3×10^3 cells/well/100 μL.
(§2) Subsequently, 3EZ,20Ac-ingenol at final concentrations of 0 (control), 0.1, 0.5, 1, 5, and 10 μM was added the wells of the respective cells, and culturing was performed for 48 hours. Subsequently, cell proliferation was examined by MTT assay using a Cell Proliferation Kit I (Roche Applied Science).
(§3) First, JeKo-1 cells were seeded in a 96-well plate at 1×10^4 cells/well/100 μL. Subsequently, irinotecan at a final concentration of 0 (control), 0.5, 1, 5, 10, 20, and 30 μM was added to the wells of the cells and culturing was performed for 48 hours. In addition, Panc-1 cells were seeded in a 96-well plate at 3×10^3 cells/well/100 μL. Subsequently, irinotecan at a final concentration of 0 (control), 0.5, 1, 5, 10, 20, 30, and 50 μM was added to the wells of the cells and culturing was performed for 48 hours. Subsequently, cell proliferation was examined by MTT assay using a Cell Proliferation Kit I (Roche Applied Science).

[2] = test system: Panc-1 cells; test: MTT assay, Panc-1 cells; conditions: 48 hours, read-out: IC50 with respect to the Panc-1 cells
Procedure: as §1, §2, §3

[3] = test system: TKG0210 cells; test: Cell Death Detection ELISA, TKG0210; conditions: 0.5 μM, 72 hours
Procedure: The induction of apoptosis by 3EZ,20Ac-ingenol treatment was examined by detecting histone-binding DNA fragmentation in the cytoplasm using a Cell Death Detection ELISA kit (Roche Applied Science).
Specifically, BALL-1 cells, TKG0210 cells, and TKG0377 cells were inserted into tubes at 5×10^4 cells/well/200 μL, and incubated for 6, 12, 24, 48, and 72 hours in the presence of 3EZ,20Ac-ingenol at a final concentration of 0.5 μM. Subsequently, the respective cells were lysed in a lysis buffer. Subsequently, the supernatant of cell debris of the respective cells was collected and transferred to an ELISA plate, and an absorbance at a wavelength of 405 nm was measured to measure the induction of apoptosis.

[4] = test system: ATR protein; test: Western blotting, ATR protein, JeKo-1 cells; conditions: 0.5 μM
Procedure: Specifically, JeKo-1 cells were cultured for 0 (control), 12, 24, and 48 hours in the presence of 0.5 μM of 3EZ,20Ac-ingenol. In addition, Panc-1 cells were cultured for 0 (control), 12, 24, and 48 hours in the presence of 3 μM of 3EZ,20Ac-ingenol.
Subsequently, ATR protein, p53 protein, and phosphorylated p53 (hereinafter also referred to as “p-p53”) protein in the respective cells were respectively detected using an anti-ATR antibody (Cell Signaling Technology), an anti-p53 antibody (Santa Cruz), and an anti-p-p53 antibody (Cell Signaling Technology). Furthermore, as a loading control, actin protein was detected using an anti-actin antibody (Sigma).

[5] = test system: phosphorylated Akt (Ser^473); test: Western blotting, p-Akt (Ser473), TKG0210 cells; conditions: 0.5 μM
Procedure: The effect of 3EZ,20Ac-ingenol treatment on a PI3K/Akt signaling pathway was examined. Specifically, BALL-1 cells, TKG0210 cells, and TKG0377 cells were cultured for 48 hours in the presence of 3EZ,20Ac-ingenol at a final concentration of 0.5 μM, and by Western blotting using an anti-p-Akt (Ser^473) antibody (Cell Signaling Technology), phosphorylation of the 473th serine residue of an Akt protein in respective fractions of the entire cell, a nucleus, and a cytoplasm was analyzed. In addition, cells cultured in the absence of 3EZ,20Ac-ingenol were used as controls.
BALL-1 cells, TKG0210 cells, and TKG0377 cells were cultured for 24 and 48 hours in the presence of 3EZ,20Ac-ingenol at a final concentration of 0.5 μM, and abundances of p-Akt in the nuclear fraction and the cytoplasm fraction were analyzed by Western blotting. In addition, respective cells cultured in the absence of 3FZ,20Ac-ingenol were used as controls.

[6] = test system: PTEN protein; test: Western blotting, PTEN protein, Panc-1 cells; conditions: 3 μM
Procedure: (§4) Specifically, first, JeKo-1 cells were cultured for 0 (control), 12, 24, and 48 hours in the presence of 0.5 μM of 3EZ,20Ac-ingenol. In addition, Panc-1 cells were cultured for 0 (control), 12, 24, and 48 hours in the presence of 3 μM of 3EZ,20Ac-ingenol.
Subsequently, abundances of PTEN protein in entire cell fractions, nuclear fractions, and cytoplasm fractions of the respective cells were analyzed by Western blotting using an anti-PTEN antibody (Santa Cruz). Furthermore, as a loading control, actin protein was detected using an anti-actin antibody (Sigma).

[7] = test system: p-Akt (Ser^473); test: Western blotting, p-Akt, Panc-1 cells; conditions: 3 μM
Procedure: as §4
(§5) Subsequently, by Western blotting using an anti-Akt antibody (Cell Signaling Technology) and an anti-p-Akt (Ser^473) antibody (Cell Signaling Technology), abundances of total amounts of Akt protein and p-Akt in the entire cell fractions, nuclear fractions, and cytoplasm fractions of the respective cells were analyzed. Furthermore, as a loading control, actin protein was detected using an anti-actin antibody (Sigma).

[8] = test system: Akt protein; test: Western blotting, total amount of Akt, JeKo-1 cells; conditions: 0.5 μM, entire cell fraction
Procedure: as §4, §5

CCCCC/C=C\C=C\C(=O)O[C@H]1C(C)=C[C@]23C(=O)[C@@H](C=C(COC(C)=O)[C@@H](O)[C@]12O)[C@H]1[C@@H](C[C@H]3C)C1(C)C [3EZ,20Ac-ingenol, 3-O-(2′E,4′Z-decadienoyl)-20-O-acetylingenol] was tested, and the “proliferation inhibition of JeKo-1 cells” value ([1]; 1 to 10 μM of 3EZ,20Ac-ingenol) was “grown cells were almost eliminated”, the IC50 ([1]; MTT assay, read-out: IC50 with respect to the JeKo-1 cells) was 500 nM and the IC50 [2] was 3000 nM. The “amount of fragmented DNA (apoptosis)” value [3] was “almost no fragmented DNA was detected”, the “expression level of ATR protein” value ([4]; 12 hours, further increase 24 hours after treatment) was “an increase in expression level of ATR protein was recognized” and the “expression level of ATR protein” value ([4]; 48 hours after treatment) was “a decrease was recognized”. For the same molecule, the “abundance of p-Akt” value ([5]; 24 and 48 hours, cytoplasm fraction and nuclear fraction) was “no decrease in abundance of p-Akt was observed”, the “abundance of p-Akt” value ([5]; 48 hours, cytoplasm fraction) was “remained almost unchanged” and the “abundance of p-Akt” value ([5]; 48 hours, entire cell) was “a decrease in abundance of phosphorylated Akt”. The “abundance of p-Akt” value ([5]; 48 hours, nuclear fraction) was “remained almost unchanged”, the “abundance of PTEN protein” value ([6]; cytoplasm fraction, 12 hours to 24 hours) was “an increase in abundance of PTEN protein in the cytoplasm fraction was observed” and the “abundance of PTEN protein” value ([6]; cytoplasm fraction, 48 hours) was “a decrease in abundance of PTEN protein was observed”. For the same molecule, the “abundance of PTEN protein” value ([6]; entire cell fraction, 12 hours until 48 hours) was “an abundance of PTEN protein increased”, the “abundance of PTEN protein” value ([6]; nuclear fraction, 12 hours to 24 hours) was “an increase in abundance of PTEN protein in the nuclear fraction was observed” and the “abundance of p-Akt” value ([7]; entire cell fraction, 12 hours and 24 hours) was “a temporary increase in abundances of both p-Akt and total amount of Akt was recognized”. The “abundance of p-Akt” value ([7]; entire cell fraction, 48 hours) was “a decrease was observed again”, the “abundance of p-Akt” value ([7]; nuclear fraction and cytoplasm fraction, 12 to 24 hours) was “an increase in abundance of both p-Akt and total amount of Akt was recognized” and the “abundance of p-Akt” value ([7]; nuclear fraction and cytoplasm fraction, 48 hours) was “a decrease was observed 48 hours after the treatment”. For the same molecule, the “abundance of a total amount of Akt” value [8] was “almost no change was observed”.
